Reference: US4670260A, “Antibiotic for animal feeds” (Bayer Aktiengesellschaft, priority 1984, dated 1987)

Test system: Streptomyces strain BA 9
Assay: Growth inhibition of producing strain BA 9 by antibiotics
Assay type: cell-based, Streptomyces sp.
Settings: ISP medium No. 1+, 28° C., 2 d
Description: The optimum temperature is 28° (ISP medium No. 1^+, 5 d). No growth was observed on ISP medium No. 7 (tyrosine agar). Melanin is formed on ISP medium No. 6. The growth is inhibited by chloramphenicol (10 μg); erythromycin (10 μg), sulphafurazole (100 μg), streptomycin (10 μg), tetracycline (10 μg), chephaloridine (5 μg) fusidic acid (10 μg), lincomycin (10 μg) and novobiocib (5 μg) (ISP medium No. 1^+, 28° C., 2 d). Growth was good (substrate mycelium) on ISP media Nos. 3, 4 and 5, with sparse formation of aerial mycelium on ISP medium Nos. 3 and 5.

For `O=C(Cc1cccs1)N[C@@H]1C(=O)N2C(C(=O)[O-])=C(C[n+]3ccccc3)CS[C@H]12` [chephaloridine], the “growth inhibition of strain BA 9” value (5 μg) was “inhibited”.

`O=C(N[C@H](CO)[C@H](O)c1ccc([N+](=O)[O-])cc1)C(Cl)Cl` [chloramphenicol] was tested, and the “growth inhibition of strain BA 9” value (10 μg) was “inhibited”.

In the case of `CC[C@H]1OC(=O)[C@H](C)[C@@H](O[C@H]2C[C@@](C)(OC)[C@@H](O)[C@H](C)O2)[C@H](C)[C@@H](O[C@@H]2O[C@H](C)C[C@H](N(C)C)[C@H]2O)[C@](C)(O)C[C@@H](C)C(=O)[C@H](C)[C@@H](O)[C@]1(C)O` [erythromycin], the “growth inhibition of strain BA 9” value (10 μg) is reported as “inhibited”.

In the case of `CC(=O)O[C@H]1C[C@@]2(C)[C@@H](C[C@@H](O)[C@H]3[C@@]4(C)CC[C@@H](O)[C@@H](C)[C@@H]4CC[C@@]32C)/C1=C(\CCC=C(C)C)C(=O)O` [fusidic acid], the “growth inhibition of strain BA 9” value (10 μg) is reported as “inhibited”.

In the case of `CCC[C@@H]1C[C@@H](C(=O)N[C@@H]([C@H]2O[C@H](SC)[C@H](O)[C@@H](O)[C@H]2O)[C@@H](C)O)N(C)C1` [lincomycin], the “growth inhibition of strain BA 9” value (10 μg) is reported as “inhibited”.

For `CO[C@@H]1[C@@H](OC(N)=O)[C@@H](O)[C@H](Oc2ccc3c(O)c(NC(=O)c4ccc(O)c(CC=C(C)C)c4)c(=O)oc3c2C)OC1(C)C` [novobiocib], the “growth inhibition of strain BA 9” value (5 μg) was “inhibited”.

For `[H]/N=C(/N)N[C@H]1[C@H](O)[C@@H](O)[C@H](O[C@@H]2O[C@@H](C)[C@](O)(C=O)[C@H]2O[C@@H]2O[C@@H](CO)[C@H](O)[C@@H](O)[C@@H]2NC)[C@@H](N/C(N)=N\[H])[C@@H]1O` [streptomycin], the “growth inhibition of strain BA 9” value (10 μg) was “inhibited”.

For `Cc1noc(NS(=O)(=O)c2ccc(N)cc2)c1C` [sulphafurazole], the “growth inhibition of strain BA 9” value (100 μg) was “inhibited”.

With `CN(C)C1C(=O)C(C(N)=O)=C(O)C2(O)C(=O)C3=C(O)c4c(O)cccc4C(C)(O)C3CC12` (stereo not drawn) [tetracycline] the “growth inhibition of strain BA 9” value (10 μg) was “inhibited”.
